Where “and” joins values, the source holds several entries; their conditions need not be identical. Equal values may be shown once. Numbers after ± are expanded uncertainties.
Details: Crystal, Calculated from knudsen effusion weight loss

[I][La]([I])[I] [lanthanum triiodide]
Details | vapor or sublimation pressure
827 K | 4.7e-07 ± 3.5e-07 kPa
845 K | 1.1e-06 ± 6e-07 kPa
862 K | 2.5e-06 ± 1.2e-06 kPa
869 K | 3.5e-06 ± 1.5e-06 kPa
875 K | 4.7e-06 ± 3.5e-06 kPa
884 K | 7.1e-06 ± 3.9e-06 kPa
905 K | 1.7e-05 ± 7e-06 kPa
910 K | 2.2e-05 ± 7e-06 kPa and 8.9e-06 ± 6.2e-06 kPa
921 K | 1.6e-05 ± 1.7e-05 kPa and 3.4e-05 ± 1.7e-05 kPa
937 K | 6.5e-05 ± 2.8e-05 kPa and 4e-05 ± 2.7e-05 kPa
943 K | 8.1e-05 ± 3.4e-05 kPa and 5.4e-05 ± 3.3e-05 kPa
953 K | 0.00012 ± 6.2e-05 kPa and 9.1e-05 ± 6.3e-05 kPa
962 K | 0.00017 ± 6.7e-05 kPa and 0.00014 ± 6.6e-05 kPa
978 K | 0.00031 ± 9.3e-05 kPa and 0.00033 ± 0.00011 kPa
